Test results as given in patent US20220280607A1, “Treatment of Heart Defects and Conditions in Pediatric Patients” (University of Pittsburgh - Of the Commonwealth System of …, priority 2019, published 2022).

Tested on: adult mouse heart after myocardial infarction
Test: Neonatal propranolol treatment followed by adult baseline analysis and myocardial infarction (LAD ligation) with cardiac MRI, AFOG histology and stereology
Type: in vivo
Experimental: Mouse myocardial injury model: ICR mice were treated with propranolol (10 μg/g, 2 i.p. injections/day) from P1 to P12. Then, cardiac injury was induced to male mice via performing left anterior descending artery (LAD) ligation at the age of P40 to P60. Briefly, the mice were anesthetized with 4% isoflurane, intubated, and ventilated with a stroke volume of 225 microliters (μl) at 145 breaths/minute. The hearts were exposed by performing thoracotomy and the LAD coronary artery was tied with 8-0 nylon suture. After the chest was […] with 6-0 suture, bupivacaine (8 μg/g) was locally administered through subcutaneous injection. The mice were kept intubated without isoflurane at room temperature until waking up from the anesthesia. Bupivacaine (8 μg/g) was administered by subcutaneous injection in the following 3 days (1 day post injury (dpi) to 3 dpi). The heart function after LAD ligation was measured by cardiac MRI at 1-3 days post injury (dpi, acute injury period) and 10-12 dpi (recovery period), respectively.
Quantification of cardiomyocytes with unbiased stereology: Mouse hearts were washed in cardioplegia solution (PBS, […] potassium chloride (KCl)), weighed, and fixed with 3.7% formaldehyde at room temperature overnight. The hearts were then placed in 30% sucrose at 4° C. for 48 hours. The atria were cut off and the ventricles were embedded in OCT and sectioned on a Leica CM1950 cryostat in cross-sectional orientation (thickness 15 μm), resulting in 75-80 slides/heart with 4 sections each. For random systematic sampling we used a random number generator ranging between […] to determine the first slide and then selected every 17th slide for staining. Myocardial volume and scar were quantified by point count method on AFOG-stained sections. Briefly, tissue sections were stained with Acid fuchsin-orange G (AFOG; Polizzotti et al.) and photomicrographs were taken on a Leica MZ26 dissector microscope (objective lens 10×). Areas of myocardium (red after AFOG staining) and scar (blue after AFOG staining) were quantified using ImageJ (version 1.51s). The image was overlaid with a grid to determine area per point. The distance between selected sections was calculated (17th slide×4 sections/slide×15 μm section thickness). The LV myocardial volume was measured by counting the number of grids on both LV myocardium and the scar region. We used the optical dissector method to determine the volume density of cardiomyocyte nuclei. The optical dissector operates optimally at 3 μm distance between lookup and counting frames. Adult mouse hearts were sectioned with a cryostat set at 15 μm. Slides were stained with α-actinin and Hoechst and imaged with an A1R laser-scanning confocal microscope (×60 oil lens).
Briefly, the immunofluorescence stained sections were imaged using a Nikon A1R confocal microscope. We selected four random spots on the technically-best section from each slide and analyzed 20 random samples from each heart. The total number of positive cardiomyocyte nuclei per heart was counted and the mean per sample volume was calculated. Total number of cardiomyocytes (endowment) was calculated as: Number of cardiomyocytes=Number of cardiomyocyte nuclei/(Mono %+2×Bi %[…]+4×Tetra %).
Adult mouse cardiac MRI: Mice were anesthetized with 4% isoflurane mixed with room air in an induction box for 1 to 3 minutes. The depth of anesthesia was monitored by toe reflex, extension of limbs, and spine positioning. Once an appropriate depth of anesthesia was established, mice were placed on a custom-built mouse holder and the anesthesia was maintained by 1.5 to 2% isoflurane with 100% oxygen via a nose cone. […] The respiration waveform was automatically processed to detect inspiration, expiration, and respiration rate. In-vivo cardiac MRI (CMR) was carried out on a Bruker Biospec 7T/30 system (Bruker Biospin MRI, Billerica, Mass.) with the 35-mm quadrature coil for both transmission and reception.

CC(C)NCC(O)COc1cccc2ccccc12 (centres unmarked) [propranolol, 1-naphthalen-1-yloxy-3-(propan-2-ylamino)propan-2-ol]
scar size, determined by histology (12 dpi, AFOG staining, vs control, FIG. 13K): not different | region of myocardium affected by ischemia, visualized by LGE (after MI, vs control, FIG. 13D, 13E): not different | relative systolic thickening (after MI, vs control, FIG. 13J): higher | higher cardiomyocyte endowment after MI (determined by stereology, vs control, FIG. 13L): 30% | increased cardiomyocyte endowment in adult hearts at baseline (propranolol 10 μg/g, 2 i.p. injections per day, P1-12, P42, FIG. 13A): persisted until adulthood | cardiac function (ejection fraction) of adult hearts at baseline (propranolol P1-12, P60, FIG. 13B): did not alter | thinned region of the LV myocardium after myocardial infarction (recovery phase, vs control, FIG. 13H, 13I): significantly smaller | MRI-measured ejection fraction (twelve days after MI (recovery phase), FIG. 13F, 13G): 42% | infarct size by late gadolinium-enhancement vs control (two days after MI (acute phase), FIG. 13D, 13E): same | ejection fraction (MRI) vs control (two days after MI (acute phase), FIG. 13F, 13G): same | heart weight (heart weight to body weight ratio) after MI (vs control, FIG. 13M): not changed
